The source of these data is patent publication US7638516B2, “Agent for therapeutic treatment of optic nerve diseases and the like” (Mei Co., Ltd., priority 2000, dated 2009).

The experiment has as its system retinal degeneration induced by transient retinal ischemia. Put plainly: Suppressing effect on retinal degeneration in transient retinal ischemia. It counts as in vivo, Wister male rats. The conditions noted are these: rat, 3 mg/kg into the caudal vein immediately before and after ocular hypertension treatment (IOP 130 mmHg, 50 minutes); 7 days after treatment; p<0.01 relative to control. The procedure:
Wister male rats (body weight of about 200 g) were used. Each animal was subjected to sufficient warming treatment by using a thermal plate under anesthesia, and the head was fixed by using a stereotaxic apparatus. In order to induce transient retinal ischemia, IOP was maintained at 130 mmHg for 50 minutes by injecting intraocular irrigating solution into the anterior chamber via the cornea using an infusion tube and 30 G injection needle which were connected to a bottle held at 174 cm above the eyes (ocular hypertension treatment) according to the method of Akaike (Folia Pharmacologica Japonica, 111, pp. 97-104 (1998)). The ocular hypertension treatment was performed only on the right eye, and the left eye was left untreated. Immediately before and after the ocular hypertension treatment, a physiological saline solution or a dose of 3 mg/kg of MCI-186 was injected to the caudal vein. […] That is, a light-microscopic section of the retina was prepared 7 days after the ocular hypertension treatment, and the thickness of the retina was measured under microscope by using a micrometer (thickness from inner plexiform layer to inner nuclear layer). […] 7 days after the ocular hypertension treatment. Data represent means±SEM. As for the number of animals, the control group consisted of 10 rats, and the MCI-186 group consisted of 11 rats. […]

As to `CC1=NN(c2ccccc2)C(=O)C1` [MCI-186, 3-methyl-1-phenyl-2-pyrazolin-5-one], the “retinal degeneration induced by transient retinal ischemia (retinal thickness ratio, ocular hypertension treated eye/normal eye)” value was “significantly suppressed”.
